The source of these data is patent US20070015823A1, “Ambruticin VS compounds” (priority 2004, published 2007).

One assay relates to A. flavus ATCC 204304. The experiment in a line: Broth microdilution antifungal susceptibility, NCCLS M38-A. The class given is cell-based, Aspergillus flavus. As to conditions: minimal concentration inhibiting >95% growth; average of at least two assays (except I-l and I-x). (Dilution methods test growth across graded concentrations, often in twofold steps.)
The test system of a further assay is A. fumigatus ATCC 204305. The description is as above. Type of assay: cell-based, Aspergillus fumigatus. The note with it: minimal concentration inhibiting >95% growth; average of at least two assays (except I-l and I-x).
In assay [1] the test system is Trichophyton mentagrophytes. The experiment in a line: Dermatophyte broth microdilution, NCCLS M38-A. The class given is cell-based.
The test system of the next assay is Microsporum gypseum. In words: Dermatophyte broth microdilution, NCCLS M38-A. The class given is cell-based.
Assay [2] relates to Trichophyton interdigitale. In words: Dermatophyte broth microdilution, NCCLS M38-A. Type of assay: cell-based.
In a further assay the test system is Epidermophyton floccosum. In words: Dermatophyte broth microdilution, NCCLS M38-A. The class given is cell-based.
The test system of another assay is Trichophyton rubrum. In words: Dermatophyte broth microdilution, NCCLS M38-A. The class given is cell-based.
A further assay relates to Microsporum canis. The experiment in a line: Dermatophyte broth microdilution, NCCLS M38-A. Type of assay: cell-based.
A further assay concerns Blastomyces dermatitidis. In words: Broth microdilution antifungal susceptibility, NCCLS M38-A. Type of assay: cell-based.
A further assay concerns Histoplasma capsulatum. Type of assay: cell-based.
A further assay deals with Cryptococcus neoformans. In words: Broth microdilution antifungal susceptibility, NCCLS M38-A. The note with it: 50% growth inhibition, range = minimum and maximum of multiple assays.
The test system of another assay is C. immitis. In words: microbe, parasite or virus in culture. Type of assay: cell-based, Coccidioides immitis.

Converted amounts (≈) assume the structure as drawn. Read-outs that look alike come from different tables or passages of the source.

Take `CC[C@H]1O[C@@H](/C(C)=C/[C@H](C)/C=C/[C@H]2[C@@H](C)[C@@H]2/C=C/[C@@H]2O[C@H](CC(=O)N3CCC3)C[C@H](N(C)C)[C@H]2O)CC=C1C` [I-pp, (5S,6R)-1-(azetidin-1-yl)-5-dimethylamino-6-hydroxypolyangi-1-one]: the “MIC0 A. flavus ATCC 204304” value in the assay with A. flavus ATCC 204304 amounted to 2 µg/mL. The “MIC0 A. fumigatus ATCC 204305” value against A. fumigatus ATCC 204305 stood at 4 µg/mL. Further, the “MIC0 Tm” value in [1] (Trichophyton mentagrophytes (2 strains), 95% growth inhibition) stood at 4 µg/mL. Moreover, the “MIC0 Mg” value with Microsporum gypseum (Microsporum gypseum (3 strains), 95% growth inhibition) is 2.51 µg/mL. In addition, in assay [2] (Trichophyton interdigitale (3 strains), 95% growth inhibition), the “MIC0 Ti” value amounted to 5.03 µg/mL. Moreover, the “MIC0 Ef” value against Epidermophyton floccosum (Epidermophyton floccosum (2 strains), 95% growth inhibition) came out at 2.82 µg/mL. Also, the “MIC0 Tr” value against Trichophyton rubrum (Trichophyton rubrum (3 strains), 95% growth inhibition) is recorded as “¼”. In the assay with Microsporum canis (Microsporum canis (2 strains), 95% growth inhibition), the “MIC0 Mc” value is 1 µg/mL.
As for `CC[C@H]1O[C@@H](/C(C)=C/[C@H](C)/C=C/[C@H]2[C@@H](C)[C@@H]2/C=C/[C@@H]2O[C@H](CC(=O)O)C[C@H](N(C)C(C)=O)[C@H]2O)CC=C1C` [I-i, (5S,6R)-5-[N-methyl(acetamido)]-6-hydroxypolyangioic acid], the “MIC0 A. flavus ATCC 204304” value against A. flavus ATCC 204304 was above 32 µg/mL. The “MIC0 A. fumigatus ATCC 204305” value in the assay on A. fumigatus ATCC 204305 came out at 32 µg/mL. In addition, the “MIC0 Tm” value in assay [1] is above 8 µg/mL. In addition, in the assay on Microsporum gypseum, the “MIC0 Mg” value is above 8 µg/mL. In assay [2], the “MIC0 Ti” value is above 8 µg/mL. Further, the “MIC0 Ef” value with Epidermophyton floccosum is above 8 µg/mL. For the same molecule, in the assay on Trichophyton rubrum, the “MIC0 Tr” value was above 8 µg/mL. Further, the “MIC0 Mc” value with Microsporum canis was above 8 µg/mL.
In the case of `CCC(=O)N[C@H]1C[C@@H](CC(=O)O)O[C@@H](/C=C/[C@H]2[C@H](C)[C@@H]2/C=C/[C@@H](C)/C=C(\C)[C@H]2CC=C(C)[C@@H](CC)O2)[C@@H]1O` [I-l, (5S,6R)-5-propionamido-6-hydroxypolyangioic acid], the “MIC0 A. flavus ATCC 204304” value against A. flavus ATCC 204304 turned out to be 16 µg/mL. For the same molecule, in the assay on A. fumigatus ATCC 204305, the “MIC0 A. fumigatus ATCC 204305” value turned out to be 8 µg/mL. Further, in [1], the “MIC0 Tm” value stood at 5.66 µg/mL. In addition, in the assay on Microsporum gypseum, the “MIC0 Mg” value turned out to be 0.79 µg/mL. In addition, the “MIC0 Ti” value in assay [2] is 0.79 µg/mL. Moreover, the “MIC0 Ef” value against Epidermophyton floccosum worked out at 2.82 µg/mL. For the same molecule, in the assay on Trichophyton rubrum, the “MIC0 Tr” value worked out at 1.58 µg/mL. The “MIC0 Mc” value in the assay with Microsporum canis was found to be 1.41 µg/mL.
Consider `CC[C@H]1O[C@@H](/C(C)=C/[C@H](C)/C=C/[C@H]2[C@@H](C)[C@@H]2/C=C/[C@@H]2O[C@H](CC(=O)O)C[C@H](N(C)Cc3ncc[nH]3)[C@H]2O)CC=C1C` [I-y, (5S,6R)-5-(N-(2-imidazolyl)methyl-methylamino)-6-hydroxypolyangioic acid], for which, in the assay on A. flavus ATCC 204304, the “MIC0 A. flavus ATCC 204304” value was 9 µg/mL. The “MIC0 A. fumigatus ATCC 204305” value with A. fumigatus ATCC 204305 was 8.5 µg/mL. In addition, in the assay with Blastomyces dermatitidis, the “MIC B. dermatitidis Gu” value was 3.13 µg/mL (≈ 5.51 µM), the “MIC B. dermatitidis Kr” value was above 12.5 µg/mL and the “MIC B. dermatitidis V” value was above 12.5 µg/mL. For the same molecule, in the assay with Histoplasma capsulatum, the “MIC H. capsulatum G217B” value is below 0.19 µg/mL and the “MIC H. capsulatum GS20” value was below 0.19 µg/mL. In [1], the “MIC0 Tm” value came to 4.18 µg/mL. The “MIC0 Mg” value in the assay with Microsporum gypseum stood at 2.51 µg/mL. Further, the “MIC0 Tr” value against Trichophyton rubrum stood at 3.17 µg/mL. For the same molecule, the “MIC0 Mc” value against Microsporum canis was 4 µg/mL. Besides, the “MIC C. neoformans 97-14” value in the assay with Cryptococcus neoformans (strain 97-14) is 0.5 µg/mL (≈ 0.881 µM). Further, the “MIC C. neoformans 11239” value against Cryptococcus neoformans (strain 11239) turned out to be 1 µg/mL (≈ 1.76 µM). Also, the “MIC C. neoformans 11240” value in the assay with Cryptococcus neoformans (strain 11240) was determined as 1 µg/mL (≈ 1.76 µM).
`CC[C@H]1O[C@@H](/C(C)=C/[C@H](C)/C=C/[C@H]2[C@@H](C)[C@@H]2/C=C/[C@@H]2O[C@H](CC(=O)O)C[C@H](NC)[C@H]2O)CC=C1C` [Ambruticin VS-4, (5S,6R)-5-(methylamino)-6-hydroxypolyangioic acid, reference compound]: the “MIC0 A. flavus ATCC 204304” value in the assay on A. flavus ATCC 204304 turned out to be 0.47 µg/mL. Also, the “MIC0 A. fumigatus ATCC 204305” value in the assay on A. fumigatus ATCC 204305 was determined as 0.60 µg/mL. In the assay with Blastomyces dermatitidis, the “MIC2 B. dermatitidis 05-106” value was “≦0.15 μg/mL”, the “MIC2 B. dermatitidis 05-186” value is recorded as “≦0.15 μg/mL” and the “MIC2 B. dermatitidis 05-1291” value was “≦0.15 μg/mL”. In the assay with Histoplasma capsulatum, the “MIC2 H. capsulatum 05-959” value is reported as “≦0.15 μg/mL”, the “MIC2 H. capsulatum 05-1097” value was “≦0.15 μg/mL” and the “MIC2 H. capsulatum 05-1159” value is listed as “≦0.15 μg/mL”. In addition, in the assay on C. immitis, the “MIC2 C. immitis 05-469” value is “≦0.15 μg/mL”, the “MIC2 C. immitis 05-955” value is “≦0.15 μg/mL” and the “MIC2 C. immitis 05-1387” value is listed as “≦0.15 μg/mL”.
